One test concerns NALM-6. Put plainly: MTT cytotoxicity assay, NALM-6. The class given is cell-based, human. Particulars: read-out: IC50 against NALM-6. As to the method: (§1) Human B-lineage acute lymphoblastic leukemia (ALL) cell line NALM-6 and T-lineage ALL/lymphoma cell line MOLT-3 were obtained from American Type Culture Collection (Manassas, Va.). Cell lines were propagated in RPMI 1640 supplemented with 10% FCS, 4 mM glutamine, 100 units/ml penicillin G, and […] streptomycin sulfate. All tissue culture reagents were obtained from Life Technologies Inc. (Life Technologies, Inc., Gaithersburg, Md.). Cell lines were cultivated for a minimum of two passages after thawing prior to experimentation.
(§2) The cytotoxicity of the compounds were tested against human ALL cell lines using MTT assays (Roche Molecular Biochemicals, Indianapolis, Ind.), as described previously R. K. Narla et al., 1998, Clin Cancer Res 4:1405-14). Briefly, exponentially growing tumor cells were seeded into a 96-well plate at a density of 4×10^4 cells/well and incubated in medium containing the cinchona alkaloid compounds at concentrations ranging from 0.7 to 100 μM for 48 h at 37° C. in a humidified 5% CO2 atmosphere. To each well, 10 μL of MTT (final concentration, 0.5 mg/ml) was added, and the plates were incubated at 37° C. for 4 h to allow MTT to form formazan crystals by reacting with metabolically active cells. The formazan crystals were solubilized overnight at 37° C. in a solution containing 10% SDS and 0.01 M HCl. The absorbance of each well was measured in a microplate reader (Labsystems) at 540 nm and a reference wavelength of 690 nm. To translate the A540 values into the number of live cells in each well, the A540 values were compared to those on standard A540 versus cell number curves generated for each cell line. The percentage of survival was calculated using the formula: % survival=[Live cell number (test)/Live cell number (control)]×100. The IC50 values were calculated by nonlinear regression analysis using the graphed Prism Software version 2.0 (GraphPad Software, Inc., San Diego, Calif.).

The subject of the next test is MOLT-3. The experiment in a line: MTT cytotoxicity assay, MOLT-3. The class given is cell-based, human. Particulars: read-out: IC50 against MOLT-3. As to the method: as §1, §2
In test [1] the test system is mammary tumors of MMTV/neu transgenic mice. The experiment in a line: MMTV/neu transgenic mouse model of HER2+ breast cancer. The test is classed as in vivo. As to conditions: 9-week observation; for tumor shrinkage and tumor growth: AP-8 2 mg/kg i.p. twice daily, paclitaxel 6.7 mg/kg, gemcitabine 33.7 mg/kg; for prevention of tumor progression compared with AP-8: paclitaxel 6.7 mg/kg i.p., gemcitabine 33.7 mg/kg i.p. The text has this: The predictive value of genetically engineered mouse (GEM) models to predict the clinical effectiveness of anti-cancer drugs is well established (Richmond A, Su Y. Mouse xenograft models vs GEM models for human cancer therapeutics. Dis Model Mech. 2008; 1(2-3):78-82. doi:10.1241-2/dmm.0.000976). We used the transgenic mouse model of HER2+ chemotherapy-resistant breast cancer to examine the in vivo anti-cancer activity of AP-8. Overexpression of the wild type Neu in the mammary glands of transgenic mice induces metastatic breast cancer. Accordingly, in the MMTV/Neu transgenic strain, the wild-type neu is overexpressed in the mammary gland under the control of the MMTV long terminal repeat. This animal model has been used to analyze the efficacy of new therapeutic approaches to prevent or treat Her2/neu overexpressing malignancies (Uckun, Dibirdik). MMTV/Neu transgenic mice [FVB/N-TgN(MMTV/neu)202MUL; Jackson Laboratory, Bar Harbor, Me.] were bred to produce multiple litters in a controlled SPF environment (12 h light/12 h-dark photoperiod, 22±1° C., 60±10% relative humidity). All mice were housed in microisolator cages (Lab Products, Inc., Maywood, N.Y., USA) containing autoclaved bedding in a controlled specific pathogen-free (SPF) environment (12 h light/12 h-dark photoperiod, 22±1° C., 60±10% relative humidity). Animal studies were approved by the institutional Animal Care and Use Committee of Drug Discovery Enterprises and all animal care procedures conformed to the Guide for the Care and Use of Laboratory Animals of the National Research Council. The genotype of mice was confirmed by multiplex polymerase chain reaction (PCR) tests as previously reported (F. M. Uckun et al., 2007, Bioorganic Med. Chem. 15:800-14; I. Dibirdik et al., 2010, J Nanomed and Nanotechnol. 1:001-4).
Neu transgenic mice carrying one or more tumors were randomly placed in the study. For the evaluation of tumor kinetics, tumor-bearing mice were randomly assigned to either vehicle control or treatment groups. Tumor growth was determined by the measurement of tumors with a caliper in three dimensions three days a week and expressed as tumor volume in cubic millimeters (mm^3). Tumor volumes were calculated using the formula for the volume of a prolate spheroid, V=4/3×3.14×length/2×width/2×depth/2. Due to the large heterogeneity in transgenic tumor volumes on day 0, tumor growth for each mouse was normalized to the starting volume for that particular tumor. Therefore, each mouse also served as its own control, and the tumor growth curves were generated to show the rate of change in tumor volumes.
AP-8 (50 μg˜2 mg/kg in 50 μL DMSO as vehicle) (10 mice, 12 target mammary tumors, Initial average tumor volume=787±125 mm^3) was administered by twice daily intraperitoneal injections on 5 consecutive days per week. Paclitaxel (10 mice, 13 target mammary tumors, Initial average tumor volume=554±79 mm^3) was administered intraperitoneally on days 1, 3, and 5 of each week at a dose level of 6.7 mg/kg ([…]). Gemcitabine (13 mice, 18 target mammary tumors, Initial average tumor volume=549±60 mm^3) was administered intraperitoneally on days 1 and 8 every 4 weeks at a dose level of 33.7 mg/kg (˜1 g/m^2). Control mice (8 mice, 10 mammary tumors, Initial average tumor volume=293±61 mm^3) were treated by twice daily intraperitoneal injections of vehicle alone (50 μL DMSO) on 5 consecutive days per week. […]

Like-named read-outs stand apart in the source and are kept apart here.

Broadly, the IC50 is the concentration at which inhibition is half-maximal.

Turning to “2,4,6-Tri (9-O-dihydrocinchonidinyl)pyrimidine [AP-6]”, the IC50 was found to be 6 µM in the test with NALM-6 (48 h) and 11.4 µM in the test with MOLT-3 (48 h).
As for “2,4,6-Tri(9-O-cinchonidinyl)pyrimidine [AP-2]”, the figures for the IC50 with NALM-6 (48 h) and in the test with MOLT-3 (48 h) were 11.4 µM and 5.8 µM, respectively.
On the same counts, the results for `C=CC1CN2CCC1CC2C(Oc1cc(OC(c2ccnc3ccc(OC)cc23)C2CC3CCN2CC3C=C)nc(OC(c2ccnc3ccc(OC)cc23)C2CC3CCN2CC3C=C)n1)c1ccnc2ccc(OC)cc12` (single isomer, unassigned) [AP-3, 2,4,6-Tri(9-O-quininyl)pyrimidine] are 3.6 µM and 4.5 µM.
Consider `C=CC1CN2CCC1CC2C(Oc1cc(OC(c2ccnc3ccc(OC)cc23)C2CC3CCN2CC3C=C)nc(OC(c2ccnc3ccc(OC)cc23)C2CC3CCN2CC3C=C)n1)c1ccnc2ccc(OC)cc12` (single isomer, unassigned) [AP-4, 2,4,6-Tri (9-O-quinidinyl)pyrimidine], for which the IC50 came out at 2.8 µM in the test on NALM-6 (48 h) and 3.1 µM in the test with MOLT-3 (48 h).
With `CC[C@@H]1CN2CCC1C[C@@H]2C(Oc1cc(O[C@@H](c2ccnc3ccc(OC)cc23)[C@@H]2CC3CCN2C[C@@H]3CC)nc(OC(c2ccnc3ccc(OC)cc23)[C@H]2CC3CCN2C[C@H]3CC)n1)c1ccnc2ccc(OC)cc12` (some centres unmarked) [AP-7, 2,4,6-Tri (9-O-dihydroquininyl)pyrimidine], the IC50 in the test on NALM-6 (Homo sapiens, NALM-6, 48 h) was 3.3 µM; with MOLT-3 (Homo sapiens, MOLT-3, 48 h) it was 3.5 µM.
On to `Nc1ccn([C@@H]2O[C@H](CO)[C@@H](O)C2(F)F)c(=O)n1` [gemcitabine, Gemcitabine], for which, in test [1], the “tumor shrinkage and tumor growth” value is on record as “Neither paclitaxel nor gemcitabine at the clinically applicable dose levels used in these experiments induced tumor shrinkage”; the “prevention of tumor progression compared with AP-8” value is reported as “less effective than AP-8 in preventing tumor progression”.
Regarding `CC(=O)O[C@H]1C(=O)[C@@]2(C)[C@H]([C@H](OC(=O)c3ccccc3)[C@]3(O)C[C@H](OC(=O)[C@H](O)[C@@H](NC(=O)c4ccccc4)c4ccccc4)C(C)=C1C3(C)C)[C@]1(OC(C)=O)CO[C@@H]1C[C@@H]2O` [paclitaxel, Paclitaxel], in test [1], the “tumor shrinkage and tumor growth” value is reported as “Neither paclitaxel nor gemcitabine at the clinically applicable dose levels used in these experiments induced tumor shrinkage”; the “prevention of tumor progression compared with AP-8” value is given as “less effective than AP-8 in preventing tumor progression”.

Source of the values: patent US11066421B1, “Synthetic cinchona alkaloids against cancer” (Ares Pharmaceuticals, LLC, priority 2021, dated 2021).
